In BindingDB's records for PubMed 8437101 (University of Pennsylvania, 1993) one finds Ki data, which are given here for ten compounds.

Structures can show the parent of a compound that is named as a salt.

Chain of D(3) dopamine receptor (P19020 whole entry): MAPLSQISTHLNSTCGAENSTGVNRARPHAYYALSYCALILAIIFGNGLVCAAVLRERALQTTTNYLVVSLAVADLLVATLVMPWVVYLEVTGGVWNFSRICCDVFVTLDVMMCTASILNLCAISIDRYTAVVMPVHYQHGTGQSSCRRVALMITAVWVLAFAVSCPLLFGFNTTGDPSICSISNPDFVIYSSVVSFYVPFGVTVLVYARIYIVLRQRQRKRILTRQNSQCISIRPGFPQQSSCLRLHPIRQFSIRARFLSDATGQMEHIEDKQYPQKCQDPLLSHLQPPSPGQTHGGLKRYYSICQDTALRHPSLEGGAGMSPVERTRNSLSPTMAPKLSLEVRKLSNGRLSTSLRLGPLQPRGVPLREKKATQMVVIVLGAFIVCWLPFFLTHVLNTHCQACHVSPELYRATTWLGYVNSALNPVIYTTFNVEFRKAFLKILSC

This assay addresses D(3) dopamine receptor (Rattus norvegicus, UniProt P19020).
For `CN1CCN(C2=Nc3cc(F)ccc3Cc3ccccc32)CC1`, the affinity, expressed as Ki, was 255 nM.
The same measure for `CCCN[C@@H]1CCc2c(OC)cccc2[C@@H]1C`: 438 nM; for `CN1CCN(C2=Nc3ccccc3Cc3ccccc32)CC1`: 919 nM; for `OCCN1CCN(CCCN2c3ccccc3Sc3ccc(C(F)(F)F)cc32)CC1` [2-[4-[3-[2-(trifluoromethyl)phenothiazin-10-yl]propyl]piperazin-1-yl]ethanol;hydrochloride]: 0.71 nM.
Regarding `CCc1cc(Cl)c(OC)c(C(=O)NC[C@@H]2CCCN2CC)c1O` [3-Chloro-5-ethyl-N-((S)-1-ethyl-pyrrolidin-2-ylmethyl)-6-hydroxy-2-methoxy-benzamide], the affinity, expressed as Ki, was 0.23 nM.
Consider `CN1CCc2cccc3c2[C@H]1Cc1ccc(O)c(O)c1-3` [APOKYN], for which the affinity corresponds to a Ki of 43.9 nM.
For the compound `COc1cc(N)c(Cl)cc1C(=O)N[C@@H]1C[C@H]2CCC[C@@H](C1)N2Cc1ccc(F)cc1` [BRL-34778], the affinity, expressed as Ki, was 0.28 nM.
The same measure for `Cc1nc2n(c(=O)c1CCN1CCC(C(=O)c3ccc(F)cc3)CC1)CCS2` [CAS_86487-64-1]: 106 nM; for `CCCN(CCC)C1C=Cc2c(OC)cccc2C1C` (stereo not given) [CAS_5311190]: 36.5 nM.
Regarding `O=C(O)c1ccccc1C(=O)Nc1cccc2ccccc12` [NPA,(+)], the Ki – broadly, the equilibrium dissociation constant of an inhibitor or competing ligand from its target – was 0.81 nM.
